Experimental data from ChEMBL document CHEMBL3045241, “Design, synthesis, and docking studies of novel telmisartanglitazone hybrid analogs for the treatment of metabolic syndrome” (Med Chem Res, 2009).
The source made the active and inactive calls. No cut-off for these calls is given here.

Legend:
[1] = target: T1, Type-1 angiotensin II receptor A (Rattus norvegicus, UniProt P25095); assay: Displacement of [125I]-SI-Ang-2 from AT1 receptor in Rattus norvegicus Sprague-Dawley (rat) liver membranes after 2 hr; parameters: species or system Membrane
T1 sequence (P25095 whole entry): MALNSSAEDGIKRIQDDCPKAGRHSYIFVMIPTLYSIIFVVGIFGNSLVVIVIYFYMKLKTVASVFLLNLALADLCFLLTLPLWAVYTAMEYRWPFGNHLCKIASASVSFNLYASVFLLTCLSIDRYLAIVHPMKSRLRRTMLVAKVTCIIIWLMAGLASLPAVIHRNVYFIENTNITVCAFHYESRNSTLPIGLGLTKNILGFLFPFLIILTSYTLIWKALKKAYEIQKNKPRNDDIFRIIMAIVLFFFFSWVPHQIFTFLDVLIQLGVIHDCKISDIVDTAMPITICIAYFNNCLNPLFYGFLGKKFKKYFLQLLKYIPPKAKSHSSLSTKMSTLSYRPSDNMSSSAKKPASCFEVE

[2] = target: T2, Peroxisome proliferator-activated receptor gamma (Mus musculus) (UniProt P37238); assay: Agonist activity at Mus musculus (mouse) PPARgamma LBD expressed in african green monkey CV-1 cells co-expressing GAL4 assessed as […] at 1 uM after 24 hr by luciferase assay relative to rosiglitazone; format: cell-based
T2 sequence (whole entry): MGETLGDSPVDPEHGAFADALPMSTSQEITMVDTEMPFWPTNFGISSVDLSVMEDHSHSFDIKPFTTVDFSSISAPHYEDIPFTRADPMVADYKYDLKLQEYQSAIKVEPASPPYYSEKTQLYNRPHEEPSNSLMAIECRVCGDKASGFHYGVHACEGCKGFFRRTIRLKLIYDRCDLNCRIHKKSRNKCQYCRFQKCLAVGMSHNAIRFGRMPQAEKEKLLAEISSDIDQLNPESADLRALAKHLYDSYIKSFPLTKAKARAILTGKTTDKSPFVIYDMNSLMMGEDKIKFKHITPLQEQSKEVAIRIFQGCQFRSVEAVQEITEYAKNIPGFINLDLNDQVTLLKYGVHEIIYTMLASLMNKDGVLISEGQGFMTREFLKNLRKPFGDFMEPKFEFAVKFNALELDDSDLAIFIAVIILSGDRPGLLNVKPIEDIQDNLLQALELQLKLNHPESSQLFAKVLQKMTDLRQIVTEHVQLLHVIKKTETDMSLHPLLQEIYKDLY

[3] = tested on: 3T3-L1; assay: Induction of adipocyte differentiation in Mus musculus (mouse) 3T3L1 cells at 1 to 5 uM; format: functional, cell-based

`COC(=O)c1cc(CC2SC(=O)NC2=O)ccc1OCCN(C)C(=O)CCCCC1CCCCC1` (stereo unspecified) was tested, and the Ki [1] was > 10 µM and the %max [2] was 90.4%.

`CCCc1nc2c(C)cc(Br)cc2n1CCOc1ccc(CC2SC(=O)NC2=O)cc1C(=O)OC` (stereo unspecified) was tested, and the Ki [1] was > 10 µM and the %max [2] was 51.6%.

With `CCCc1nc2c(C)cc(-c3nc4ccccc4n3C)cc2n1Cc1ccc(-c2ccccc2C(=O)O)cc1` the %max [2] was 21.2% and the Activity [3] was “Active”.

In the case of `CCCc1nc2c(C)cc(-c3ccccc3)cc2n1CCOc1ccc(CC2SC(=O)NC2=O)cc1C(=O)OC` (stereo unspecified), the Ki [1] is reported as > 10 µM and the %max [2] is reported as 11.9%.

`COC(=O)c1cc(CC2SC(=O)NC2=O)ccc1OCCn1c(CCCCC2CCCCC2)nc2ccccc21` (stereo unspecified) was tested, and the Ki [1] was > 10 µM and the %max [2] was 38.7%.

`CCCc1nc2c(C)cc(-c3nc4ccccc4n3C)cc2n1CCOc1ccc(CC2SC(=O)NC2=O)cc1C(=O)OC` (stereo unspecified) was tested, and the Ki [1] was > 10 µM.
